*1 amine or outer side, *2 acyl side, *3 side chain or, on linkers, in order; H or OH if unused. Where a SMILES comes first, the peptide text is derived from it. The star is where a group is joined. pNA = O=[N+]([O-])c1ccc(N*)cc1; Suc = O=C(CCC(=O)[*:2])[*:1]; Cbz = O=C(OCc1ccccc1)*; Bz = O=C(c1ccccc1)*
Test system: endopeptidase
Experiment: Effect of potential inhibitors (chemical agents) on the endopeptidase activity (metenkaphalin hydrolysis, TLC)
Type: biochemical, L. lactis subsp. cremoris Wg2
Design: key to Inhibition: +: Inhibition; -: No inhibition detectable
Settings: not given
With `COC(CNC(=O)c1ccccc1OCC(=O)O)[CH2][Hg][OH]` (stereo not drawn) [Mersalyl, O-(3-hydroxymercuri-2-methoxypropyl)-carbamylphenoxyacetate] the Inhibition was “-” and the “endopeptidase activity inhibited” value was “did not have an effect on the activity”.
In the case of `CCN1C(=O)C=CC1=O` [N-Ethylmaleimide], the Inhibition is reported as “-”.
With `CC1=CC(=O)c2c(O)cccc2C1=O` [Plumbagin] the Inhibition was “-” and the “restoration of the enzyme activity inhibited by β-mercaptoethanol” value was “could not restore the enzyme activity”.
With `O=S(=O)(F)Cc1ccccc1` [PMSF, phenylmethylsulfonylfluoride] the Inhibition was “+” and the “endopeptidase activity inhibited” value was “inhibited”.
For `O=C(O)c1cc[c]([Hg][Cl])cc1` [pCMB, p-chloromercuribenzoate], the Inhibition was “-” and the “endopeptidase activity inhibited” value was “did not have an effect on the activity”.
For Hydroxylamine, the Inhibition was “-”.
For `O=S(=O)(O)c1cc[c]([Hg][Cl])cc1` [pCMBS, p-chloromercuribenzenesulfonate], the Inhibition was “-” and the “endopeptidase activity inhibited” value was “did not have an effect on the activity”.
With `O=S(=O)(O)c1ccc2c(N=Nc3ccccc3[As](=O)(O)O)c(O)c(S(=O)(=O)O)cc2c1` [Thorin] the Inhibition was “-”.

Same assay, conditions: 1 mM chemical agent, purified enzyme 4 µg protein preincubated 10 min at 20°C; metenkaphalin 15 min at 30°C; TLC
With `N[C@@H](CSSC[C@H](N)C(=O)O)C(=O)O` [Cystine] the Inhibition was “-”.
With `O[C@H](CS)[C@H](O)CS` (racemic) [DTT, dithiothreitol] the Inhibition was “-”.
With `OCCS` [β-Mercaptoethanol] the Inhibition was “+”.
In the case of `c1cnc2c(c1)ccc1cccnc12` [1,10-phenanthroline], the Inhibition is reported as “+”.
For `CCOC(=O)OC(=O)OCC` [DEPC], the Inhibition was “-”.

Same assay, conditions: chemical agent 1.0 mM
For `O[C@H](CS)[C@H](O)CS` (racemic) [DTT, dithiothreitol], the “endopeptidase activity inhibited” value was “not”.
With `c1cnc2c(c1)ccc1cccnc12` [1,10-phenanthroline] the “endopeptidase activity inhibited” value was “inhibited”.

Same assay, conditions: oxidizing reagents up to 5 mM
With oxidized gluta thione the “restoration of the enzyme activity inhibited by β-mercaptoethanol” value was “could not restore the enzyme activity”.

Same assay, conditions: β-mercaptoethanol
In the case of `OCCS` [β-Mercaptoethanol], the “reversibility of the inhibition of the enzyme” value is reported as “irreversible”.

Same assay, conditions: β-mercaptoethanol 1%
For `OCCS` [β-Mercaptoethanol], the “endopeptidase activity inhibited” value was “inhibited”.

Test system: LEP I
Experiment: not given
Settings: cited from earlier work
In the case of oxydized insulin β-chain, the “hydrolysis by LEP I” value is listed as “cannot hydrolyse”.
For Glucagon, the “hydrolysis by LEP I” value is listed as “cannot hydrolyse”.

Test system: endopeptidase from L. lactis subsp. cremoris Wg2
Experiment: Substrate specificity: hydrolysis of peptides by the purified endopeptidase, analysed by thin layer chromatography
Type: biochemical
Design: key to Activity: +: hydrolysis; -: no hydrolysis detectable
Settings: not given
With `C[C@H](NC(=O)[C@@H]1CCCN1C(=O)CN)C(=O)N1CCC[C@H]1C(=O)O` [Gly-Pro-Ala-Pro] (H-GPAP-OH) the Activity was “-”.
With β-Casomorphin the Activity was “-”.
With `C[C@H](N)C(=O)N1CCC[C@H]1C(=O)Nc1ccc([N+](=O)[O-])cc1` [Ala-Pro-pNA] (H-Ala-Pro-pNA) the Activity was “-”.
In the case of `CC(C)C[C@H](NC(=O)[C@@H](N)CC(C)C)C(=O)O` [Leu-Leu], the Activity is reported as “-”.
For `CC(C)C[C@H](NC(=O)[C@@H]1CCCN1C(=O)[C@H](C)NC(=O)[C@H](C)NC(=O)CCC(=O)O)C(=O)Nc1ccc([N+](=O)[O-])cc1` [Nsucc-Ala-Ala-Pro-Leu-pNA] (Suc-AAPL-pNA), the Activity was “-”.
In the case of oxydized insulin β-chain, the Activity is reported as “+” and the “hydrolysis by the purified endopeptidase” value is reported as “hydrolyzed”.
In the case of `N[C@@H](Cc1ccc(O)cc1)C(=O)NCC(=O)NCC(=O)O` [Tyr-Gly-Gly, Tyrosyl-glycyl-glycine] (H-Tyr-Gly-Gly-OH), the Activity is reported as “-”.
In the case of `CC(C)[C@H](NC(=O)CN)C(=O)N[C@@H](Cc1ccccc1)C(=O)O` [Gly-Val-Phe] (H-Gly-Val-Phe-OH), the Activity is reported as “-”.
With `CSCC[C@H](NC(=O)[C@H](Cc1ccccc1)NC(=O)CNC(=O)CNC(=O)[C@@H](N)Cc1ccc(O)cc1)C(=O)O` [Metenkaphalin, Tyrosyl-glycyl-glycyl-phenylalanyl-methionine] the Activity was “+”.
In the case of Neurotensin, the Activity is reported as “+”.
In the case of `CSCC[C@H](N)C(=O)NCC(=O)NCC(=O)O` [Met-Gly-Gly] (H-Met-Gly-Gly-OH), the Activity is reported as “-”.
With `C[C@H](NC(=O)[C@H](Cc1ccccc1)NC(=O)OCc1ccccc1)C(=O)O` [Z-Phe-Ala] the Activity was “-”.
In the case of `CSCC[C@H](NC(=O)[C@@H](N)Cc1ccccc1)C(=O)O` [Phe-Met] (H-Phe-Met-OH), the Activity is reported as “-”.
With Glucagon the Activity was “+”.
With `NCC(=O)N1CCC[C@H]1C(=O)Nc1ccc([N+](=O)[O-])cc1` [Gly-Pro-pNA] (H-Gly-Pro-pNA) the Activity was “-”.
For `CC(C)C[C@H](NC(=O)[C@H](CC(C)C)NC(=O)[C@@H](N)CC(C)C)C(=O)O` [Leu-Leu-Leu] (H-Leu-Leu-Leu-OH), the Activity was “-”.
With `CC(C)C[C@H](NC(=O)OCc1ccccc1)C(=O)NCC(=O)NCC(=O)Nc1ccc([N+](=O)[O-])cc1` [Z-Leu-Gly-Gly-pNA] (Cbz-Leu-Gly-Gly-pNA) the Activity was “-”.
With `NCCCC[C@H](NC(=O)CNC(=O)c1ccccc1)C(=O)O` [Bz-Gly-Lys] (Bz-Gly-Lys-OH) the Activity was “-”.
With `C[C@H](N)C(=O)N[C@@H](C)C(=O)N[C@@H](C)C(=O)N[C@@H](C)C(=O)N[C@@H](C)C(=O)O` [Ala5] the Activity was “-”.
In the case of `C[C@H](NC(=O)[C@@H]1CCCN1C(=O)OCc1ccccc1)C(=O)O` [Z-Pro-Ala] (Cbz-Pro-Ala-OH), the Activity is reported as “-”.
With `NCC(=O)NCC(=O)O` [Gly-Gly] (H-Gly-Gly-OH) the Activity was “-”.
For `C[C@H](NC(=O)CCC(=O)O)C(=O)N[C@@H](C)C(=O)N[C@@H](C)C(=O)Nc1ccc([N+](=O)[O-])cc1` [Nsucc-Ala-Ala-Ala-pNA], the Activity was “-”.
In the case of `O=C(NCC(=O)N1CCC[C@H]1C(=O)O)c1ccccc1` [Bz-Gly-Pro] (Bz-Gly-Pro-OH), the Activity is reported as “-”.
In the case of `C[C@H](N)C(=O)N[C@@H](C)C(=O)N[C@@H](C)C(=O)N[C@@H](C)C(=O)N[C@@H](C)C(=O)N[C@@H](C)C(=O)O` [Ala6], the Activity is reported as “-”.
For `CC(C)[C@H](NC(=O)[C@@H](N)Cc1ccccc1)C(=O)O` [Phe-Val] (H-Phe-Val-OH), the Activity was “-”.

Same assay, conditions: chromogenic substrates: TLC, hydrolysis also measured at A410
In the case of `O=C(O)CCC(=O)N[C@@H](Cc1ccccc1)C(=O)Nc1ccc([N+](=O)[O-])cc1` [Nsucc-Phe-pNA], the Activity is reported as “-”.
With `NCCCC[C@H](N)C(=O)Nc1ccc([N+](=O)[O-])cc1` [Lys-pNA] the Activity was “-”.

Same assay, conditions: hydrolysis of the substrate by purified endopeptidase, analysed by TLC
For “Bradykinin (RPPGFSPFR; Bradykinin; UniProt P01042 381-389, looked up)”, the Activity was “+”.
With `NCC(=O)N1CCC[C@H]1C(=O)NCC(=O)NCC(=O)O` [Gly-Pro-Gly-Gly] (H-GPGG-OH) the Activity was “-”.
For “β-Casein(203-209) (GPFPIIV; UniProt P02666 218-224, looked up, fragment)”, the Activity was “+”.
For `CC(C)C[C@H](N)C(=O)NCC(=O)NCC(=O)O` [Leu-Gly-Gly] (H-Leu-Gly-Gly-OH), the Activity was “-”.
With “β-Casein( 33- 48) (FQSEEQQQTEDELQDK; UniProt P02666 48-63, looked up, fragment)” the Activity was “-”.
For “β-Casein(184-202) (DMPIQAFLLYQEPVLGPVR; UniProt P02666 199-217, looked up, fragment)”, the Activity was “+”.
With `CSCC[C@H](NC(=O)[C@H](CC(C)C)NC(=O)CNC(=O)[C@H](Cc1ccccc1)NC(=O)[C@H](Cc1ccccc1)NC(=O)[C@H](CCC(N)=O)NC(=O)[C@H](CCC(N)=O)NC(=O)[C@@H]1CCCN1C(=O)[C@H](CCCCN)NC(=O)[C@@H]1CCCN1C(=O)[C@@H](N)CCCNC(=N)N)C(N)=O` [Substance P] the Activity was “+”.

Reference: patent publication EP0522203A1, “Protein from lactic acid bacteria” (PROBICOM RESEARCH B.V., priority 1991, dated 1993)
